Assay results: PubChem BioAssay (NCI)
“And” between values parts separate entries of the source, which are not always exact repeats. Equal entries are not always repeated.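 Step 1: Grow cells in 96-well plates. Step 2: Expose to compound for 48 hours at 5 concentrations. Step 3: Interpolate endpoints linearly; if unreached, use highest concentration. The concentration for 50% growth inhibition is given as GI50. TGI denotes the concentration required for complete inhibition of growth.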

Experiments:
Assay in all cases: DTP human tumour cell line panel, 48 h
BT-549 breast = system: BT-549 breast
HCT-116 colon = system: HCT-116 colon
NCI/ADR-RES ovarian = system: NCI/ADR-RES ovarian
OVCAR-5 ovarian = system: OVCAR-5 ovarian
SN12C renal = system: SN12C renal
SR leukemia = system: SR leukemia
T-47D breast = system: T-47D breast

Compound | GI50 (BT-549 breast) | TGI (BT-549 breast) | GI50 (HCT-116 colon) | TGI (HCT-116 colon) | GI50 (NCI/ADR-RES ovarian) | TGI (NCI/ADR-RES ovarian) | GI50 (OVCAR-5 ovarian) | TGI (OVCAR-5 ovarian) | GI50 (SN12C renal) | TGI (SN12C renal) | GI50 (SR leukemia) | TGI (SR leukemia) | GI50 (T-47D breast) | TGI (T-47D breast)
O=C(c1c(F)ccc(NS(=O)(=O)N2CC[C@@H](F)C2)c1F)c1c[nH]c2ncc(-c3cnc(C4CC4)nc3)cc12 | > 8.75 µM and 6.83 µM | > 10 µM and 38.1 µM | 4.52 µM and 4.11 µM | > 10 µM and 41.8 µM | > 10 µM and 25.2 µM | > 100 µM | > 6.42 µM and 9.04 µM | > 10 µM and 46.4 µM | 4.89 µM and 4.81 µM | > 10 µM and 54.2 µM | 5.35 µM and 3.93 µM | > 10 µM and 79.6 µM | 2.91 µM and 2.43 µM | > 10 µM and 16.5 µM
CCOc1ccc2nc(S/C(=C/C=C(C#N)C#N)c3ccc(C)cc3)sc2c1 | 25.6 µM | 70.1 µM | 17.3 µM | 31.6 µM | 24 µM | 50.7 µM | 57.5 µM | > 100 µM | 18.1 µM | 46.4 µM | 2.92 µM | 7.43 µM | 42.4 µM | > 100 µM
Cc1[nH]c2ccccc2c1-c1cc(-c2cc(-c3c(C)[nH]c4ccccc34)on2)no1 |  | > 100 µM |  | > 100 µM |  | > 100 µM |  | > 100 µM |  | > 100 µM |  | 96.7 µM |  | > 100 µM
CCCNC(=S)/N=C/c1c(O)c2ccccc2[nH]c1=O |  | > 100 µM |  | > 100 µM |  | > 100 µM |  | > 100 µM |  | > 100 µM |  |  |  | > 100 µM
COc1ccc(-c2oc(=O)ccc2-c2cc(OC)c(OC)c(OC)c2)cc1F | 19.7 µM | 88.4 µM | 10.9 µM | > 100 µM | 11 µM | > 100 µM | 35.6 µM | > 100 µM | 38.1 µM | > 100 µM | 1.57 µM | 9.44 µM | 23.9 µM | > 100 µM
CC(=O)OC12c3ccccc3-c3ccccc3C1C1C(=O)N(C)C(=O)C12Cl (stereo not given) |  |  |  |  |  | > 10 µM |  | > 10 µM |  | > 10 µM |  | > 10 µM |  | > 10 µM
O=C(c1ccc(F)c(F)c1Nc1ccc(I)cc1F)N1CC(O)([C@@H]2CCCCN2)C1 | 7.52 µM and > 6.99 µM | 22 µM and > 10 µM | < 0.0295 µM and 0.0851 µM | 11.9 µM and > 10 µM | 6.56 µM and > 7.36 µM | 21.5 µM and > 10 µM | < 0.0277 µM and 0.0403 µM | 15.1 µM and > 10 µM | 2.03 µM and 1.14 µM | 18.7 µM and > 10 µM | 1.64 µM and 3.35 µM | 9.66 µM and > 10 µM | 9.05 µM and > 10 µM | 23.1 µM and > 10 µM
CC(CC(=O)O)C(C(=O)O)C(=O)O (stereo not given) |  | > 100 µM |  | > 100 µM |  | > 100 µM |  | > 100 µM |  | > 100 µM |  | > 100 µM |  | > 100 µM
O=c1cc(-c2ccccc2)[nH]c2c(S)cccc12 |  | > 100 µM |  | > 100 µM |  | > 100 µM |  | > 100 µM |  | > 100 µM |  | > 100 µM |  | > 100 µM
CCCCCCNC(=O)c1nc(-c2ccccc2)oc1Cc1ccc(OP(=O)(O)O)cc1 | 16.8 µM | 32.7 µM | 17.1 µM | 32.6 µM | 20.3 µM | 42 µM | 14.6 µM | 28.5 µM | 17 µM | 32.9 µM | 21.5 µM | 50.2 µM | 16.5 µM | 30.8 µM
CC1=CC(=O)[C@@H](O)[C@]2(C)[C@H]3[C@@]4(O)OC[C@]35[C@H]([C@@H](C)[C@H]4O)[C@@H](O)C(=O)O[C@@H]5C[C@@H]12 |  | 5.17 µM |  | 0.288 µM |  | 22.6 µM |  | 5.4 µM |  |  |  | > 100 µM |  | 
COc1ccc(C(O)c2nccn2C)c(OC)c1 (stereo not given) |  | > 100 µM |  | > 100 µM |  | > 100 µM |  | > 100 µM |  | > 100 µM |  | > 100 µM |  | 
CCN(CC)CCOc1ccc(/C=C2\CC3C4CC=C5C[C@@H](O)CC[C@]5(C)C4CC[C@]3(C)C2=O)cc1OC (stereo not given in full) | 26 µM | > 52.6 µM | 2.44 µM | 8.79 µM | 16.2 µM | 56.1 µM | 5.53 µM | 20.3 µM | 3.54 µM | 19.4 µM | 0.955 µM | 3.9 µM | 2.79 µM | > 100 µM
CCN(CC)c1nc(-c2ccc(Cl)cc2Cl)nc2ccccc12 | 25.4 µM | 54.1 µM | 14.8 µM | 29 µM | 23 µM | > 71.1 µM | 26.1 µM | > 68.1 µM | 17.2 µM | 46.2 µM | 8.68 µM | > 53.2 µM | 18.1 µM | 49.6 µM
Nc1nc(N)c(N=Nc2ccc([As](=O)(O)O)cc2)c(=O)[nH]1 |  | > 100 µM |  | > 100 µM |  | > 100 µM |  | > 100 µM |  | > 100 µM |  | > 100 µM |  | > 100 µM
Cc1csc(Nc2nc(-c3cccc(Br)c3)nc(C(Cl)(Cl)Cl)n2)n1 | > 100 µM | > 100 µM | 3.05 µM | > 100 µM | 5.22 µM | > 100 µM | 5.2 µM | > 100 µM |  |  |  |  | 1.38 µM | > 26.8 µM
CC(=C\c1ccccc1)/C=C(\C#N)C(N)=O |  |  |  |  |  | > 10 µM |  | > 10 µM |  | > 10 µM |  |  |  | > 10 µM
COc1c(OC)c(OC)c(C(=O)/C=C/c2ccccc2)c(OC)c1OC |  | 18.1 µM |  | 18.5 µM |  | 55.1 µM |  | 36.9 µM |  | 26.9 µM |  |  |  | 23.7 µM
O=c1[nH]c(=O)n(C2CC(O)C(CO)O2)cc1CO (stereo not given) | > 100 µM | > 100 µM | > 100 µM | > 100 µM | > 100 µM | > 100 µM | > 100 µM | > 100 µM | 91.7 µM | > 100 µM | > 100 µM | > 100 µM |  | 
Cc1ccc(-c2nc3ccc([N+](=O)[O-])cc3[nH]2)cc1 |  | > 100 µM |  | > 100 µM |  | > 100 µM |  |  |  | > 100 µM |  | > 100 µM |  | > 100 µM
Cc1ccc(/C=C/c2c(C(=O)/C=C/c3ccc(C(F)(F)F)cc3)c(C)nc3ccccc23)cc1 | 1.58 µM | 3.34 µM | 0.496 µM | 2.09 µM | 2.22 µM | 5.92 µM | 1.84 µM | 4.25 µM | 1.51 µM | 2.97 µM | 0.451 µM | 4.97 µM |  | 
CC(C)=CCc1cc(O)cc2c1OC(C=C(C)C)C1=C2C(=O)C2=C(NCCS2(=O)=O)C1=O (stereo not given) | 2.87 µM | 5.23 µM | 0.611 µM | 2.45 µM | > 16.7 µM | > 16.7 µM | 3.72 µM | 7.01 µM | 0.414 µM | 2.02 µM |  |  | 3.32 µM | 14.1 µM
